Assay results as given in US10294248B2, “Beta-lactamase inhibitors” (VenatoRx Pharmaceuticals, Inc., priority 2013, dated 2019).

Legend:
[1] = system: E. cloacae 144200 expressing Class C P99 AmpC; test: Broth microdilution MIC, E. cloacae 144200 p99 AmpC; assay type: cell-based; details: fixed 4 μg/mL ceftazidime; CAMHB, 16-20 hours at 37° C.
Method in brief: (§1)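 Potentiation MICs in CAMHB, with test compound at 32–0.25 μg/mL final alongside a β-lactam held at a fixed 4 μg/mL final. Strains pre-grown 3–5 h and inoculated per CLSI broth microdilution, then incubated 16–20 h at 37° C. MIC read visually.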

[2] = system: P. aeruginosa Ps296 expressing VIM-2; test: Broth microdilution MIC, P. aeruginosa Ps296 VIM-2; assay type: cell-based; details: fixed 4 μg/mL meropenem; CAMHB, 16-20 hours at 37° C.
Method in brief: as §1

[3] = target: T1, VIM-2 metallo-β-lactamase (Class B) (Pseudomonas aeruginosa, UniProt Q9K2N0); test: β-Lactamase inhibition, VIM-2; assay type: biochemical; details: nitrocefin 100 μM, 486 nm; 15 min preincubation at 37° C., PBS pH 7.4
T1 construct: made in house; host or cells: E. coli BL21(DE3)
Method in brief: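 Purified VIM-2 preincubated with inhibitor for 15 min at 37° C, then nitrocefin (100 μM final) added and absorbance at 486 nm followed for 10 min. Maximum hydrolysis rates compared with inhibitor-free controls; IC50 fitted from percent inhibition across inhibitor concentrations.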

[4] = system: S. aureus MSSA-7 producing penicillinase PC-1; test: Broth microdilution MIC, S. aureus MSSA-7 PC-1; assay type: cell-based; details: fixed 4 μg/mL piperacillin; CAMHB, 16-20 hours at 37° C.
Method in brief: as §1

[5] = target: T2, p99 AmpC β-lactamase (Class C) (Enterobacter cloacae, UniProt P05364); test: β-Lactamase inhibition, p99 AmpC; assay type: biochemical
T2 construct: made in house; host or cells: E. coli BL21(DE3)
T2 sequence (P05364 21-381): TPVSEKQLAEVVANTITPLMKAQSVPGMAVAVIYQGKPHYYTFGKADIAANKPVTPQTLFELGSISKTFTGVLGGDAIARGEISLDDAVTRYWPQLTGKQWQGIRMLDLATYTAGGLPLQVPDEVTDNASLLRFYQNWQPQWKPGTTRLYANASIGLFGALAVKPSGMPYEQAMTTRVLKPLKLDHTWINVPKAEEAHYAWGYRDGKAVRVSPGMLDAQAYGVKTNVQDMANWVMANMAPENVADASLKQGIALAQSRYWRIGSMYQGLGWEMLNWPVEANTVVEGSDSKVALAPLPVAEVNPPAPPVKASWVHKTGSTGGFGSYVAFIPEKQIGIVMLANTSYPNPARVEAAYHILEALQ

[6] = target: T3, KPC-2 β-lactamase (Class A carbapenemase) (Klebsiella pneumoniae, UniProt Q9F663); test: β-Lactamase inhibition, KPC-2; assay type: biochemical; details: imipenem substrate, 300 nm; 15 min preincubation at 37° C., PBS pH 7.4
T3 construct: made in house; host or cells: E. coli BL21(DE3)
T3 sequence (Q9F663 25-293, looked up): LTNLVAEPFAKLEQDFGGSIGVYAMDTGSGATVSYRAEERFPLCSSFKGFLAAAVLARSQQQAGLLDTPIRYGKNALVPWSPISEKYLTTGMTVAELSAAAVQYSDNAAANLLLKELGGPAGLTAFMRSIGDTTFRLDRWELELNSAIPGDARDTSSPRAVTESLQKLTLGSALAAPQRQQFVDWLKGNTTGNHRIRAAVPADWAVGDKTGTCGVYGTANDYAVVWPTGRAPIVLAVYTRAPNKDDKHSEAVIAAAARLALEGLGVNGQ
Method in brief: (§2)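 Native untagged β-lactamases were expressed in E. coli BL21(DE3), then purified by cation exchange and gel filtration. Enzyme was preincubated with inhibitor for 15 min at 37 °C before substrate was added. Imipenem (A300) served KPC-2 and cefotaxime (A260) served SHV-5. IC50 was taken from initial hydrolysis rates relative to no-inhibitor controls.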

[7] = system: K. pneumoniae 156319 expressing KPC-3; test: Broth microdilution MIC, K. pneumoniae 156319 KPC-3; assay type: cell-based; details: fixed 4 μg/mL meropenem; CAMHB, 16-20 hours at 37° C.
Method in brief: as §1

[8] = target: T4, OXA-1 β-lactamase (Class D oxacillinase) (Escherichia coli, UniProt P13661); test: β-Lactamase inhibition, OXA-1; assay type: biochemical; details: nitrocefin 100 μM, 486 nm; 15 min preincubation at 37° C., PBS pH 7.4
T4 construct: made in house; host or cells: E. coli BL21(DE3)
T4 sequence (P13661 26-276): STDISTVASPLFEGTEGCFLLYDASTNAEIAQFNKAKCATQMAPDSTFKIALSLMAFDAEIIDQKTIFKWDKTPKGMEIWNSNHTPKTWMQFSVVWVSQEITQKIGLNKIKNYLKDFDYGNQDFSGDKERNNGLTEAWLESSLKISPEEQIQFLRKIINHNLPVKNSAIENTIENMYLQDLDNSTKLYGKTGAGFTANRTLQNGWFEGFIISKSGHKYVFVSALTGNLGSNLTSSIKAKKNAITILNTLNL
Method in brief: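 Untagged enzyme from E. coli BL21(DE3), purified by Capto S then Superdex 75; 15 min 37 °C preincubation with inhibitor; KPC-2 read with imipenem at 300 nm, SHV-5 with cefotaxime at 260 nm, OXA-1 with nitrocefin 100 μM final at 486 nm; 10 min kinetic read; IC50 vs uninhibited wells.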

[9] = system: E. coli ESBL4 expressing CTX-M-15; test: Broth microdilution MIC, E. coli ESBL4 CTX-M-15; assay type: cell-based; details: fixed 4 μg/mL ceftazidime; CAMHB, 16-20 hours at 37° C.
Method in brief: as §1

[10] = target: T5, SHV-5 β-lactamase (Class A ESBL) (Klebsiella pneumoniae, UniProt P0A3M1); test: β-Lactamase inhibition, SHV-5; assay type: biochemical
T5 construct: made in house; host or cells: E. coli BL21(DE3)
T5 sequence (P0A3M1 22-286): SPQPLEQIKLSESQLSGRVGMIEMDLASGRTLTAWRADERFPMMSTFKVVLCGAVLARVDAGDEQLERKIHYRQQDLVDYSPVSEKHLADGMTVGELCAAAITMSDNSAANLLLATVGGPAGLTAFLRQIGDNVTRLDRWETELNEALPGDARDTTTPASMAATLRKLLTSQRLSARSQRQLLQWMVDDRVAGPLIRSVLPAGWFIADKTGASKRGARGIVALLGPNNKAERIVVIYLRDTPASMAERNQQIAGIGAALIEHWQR
Method in brief: as §2

[11] = system: K. pneumoniae A-1797 expressing KPC-2 and VIM-4; test: Broth microdilution MIC, K. pneumoniae A-1797 KPC-2/VIM-4; assay type: cell-based; details: fixed 4 μg/mL meropenem; CAMHB, 16-20 hours at 37° C.
Method in brief: as §1

Row | SMILES | MIC of example compound in presence of fixed β-lactam: Fixed CAZ, E. cl. 144200 p99 AmpC [1] | MIC of example compound in presence of fixed β-lactam: Fixed Mero, P. aerug. Ps296 VIM-2 [2] | IC50 [3] [nM] | MIC of example compound in presence of fixed β-lactam: Fixed Pip, S. aureus MSSA-7 PC-1 [4] | IC50 [5] [nM] | IC50 [6] [nM] | MIC of example compound in presence of fixed β-lactam: Fixed Mero, K. P. 156319 KPC-3 [7] | IC50 [8] [nM] | MIC of example compound in presence of fixed β-lactam: Fixed CAZ, E. coli ESBL4 CTX-M-15 [9] | IC50 [10] [nM] | MIC of example compound in presence of fixed β-lactam: Fixed Mero, K. P. A-1797 KPC-2 VIM-4 [11]
1 | NC1CN(CC(=O)N[C@H]2Cc3cccc(C(=O)O)c3OB2O)CCC1O (some centres unmarked) [Example 26, 3-[2-(3-Amino-4-hydroxy-piperidin-1-yl)-acetylamino]-2-hydroxy-3,4-dihydro-2H-benzo[e][1,2]oxaborinine-8-carboxylic acid] | C (the MIC in the presence of <4 μg/mL of a β-lactamase inhibitor) | C (the MIC in the presence of <4 μg/mL of a β-lactamase inhibitor) | 10000 to 100000 | A (an MIC of the fixed β-lactam antibiotic in the presence of >32 μg/mL of a β-lactamase inhibitor) | < 100 | 100 to 1000 | C (the MIC in the presence of <4 μg/mL of a β-lactamase inhibitor) | 100 to 1000 | C (the MIC in the presence of <4 μg/mL of a β-lactamase inhibitor) | 100 to 1000 | C (the MIC in the presence of <4 μg/mL of a β-lactamase inhibitor)
2 | O=C(CN1CCNCC1)N[C@H]1Cc2cccc(C(=O)O)c2OB1O [Example 4, 2-Hydroxy-3-(2-piperazin-1-yl-acetylamino)-3,4-dihydro-2H-benzo[e][1,2]oxaborinine-8-carboxylic acid] | C (the MIC in the presence of <4 μg/mL of a β-lactamase inhibitor) | B (the MIC in the presence of between 8 and 32 μg/mL of a β-lactamase inhibitor) | 1000 to 10000 | C (the MIC in the presence of <4 μg/mL of a β-lactamase inhibitor) | < 100 | < 100 | C (the MIC in the presence of <4 μg/mL of a β-lactamase inhibitor) | 100 to 1000 | C (the MIC in the presence of <4 μg/mL of a β-lactamase inhibitor) | < 100 | B (the MIC in the presence of between 8 and 32 μg/mL of a β-lactamase inhibitor)
3 | NCC1CCN(CC(=O)N[C@H]2Cc3cccc(C(=O)O)c3OB2O)CC1 [Example 5, 3-[2-(4-Aminomethyl-piperidin-1-yl)-acetylamino]-2-hydroxy-3,4-dihydro-2H-benzo[e][1,2]oxaborinine-8-carboxylic acid] | C (the MIC in the presence of <4 μg/mL of a β-lactamase inhibitor) | B (the MIC in the presence of between 8 and 32 μg/mL of a β-lactamase inhibitor) | 100 to 1000 | B (the MIC in the presence of between 8 and 32 μg/mL of a β-lactamase inhibitor) | < 100 | < 100 | C (the MIC in the presence of <4 μg/mL of a β-lactamase inhibitor) | < 100 | C (the MIC in the presence of <4 μg/mL of a β-lactamase inhibitor) | 1000 to 10000 | C (the MIC in the presence of <4 μg/mL of a β-lactamase inhibitor)
4 | NC1CCN(CC(=O)N[C@H]2Cc3cccc(C(=O)O)c3OB2O)CC1O (some centres unmarked) [Example 24, 3-[2-(4-Amino-3-hydroxy-piperidin-1-yl)-acetylamino]-2-hydroxy-3,4-dihydro-2H-benzo[e][1,2]oxaborinine-8-carboxylic acid] | C (the MIC in the presence of <4 μg/mL of a β-lactamase inhibitor) | B (the MIC in the presence of between 8 and 32 μg/mL of a β-lactamase inhibitor) | 10000 to 100000 | C (the MIC in the presence of <4 μg/mL of a β-lactamase inhibitor) | < 100 | 100 to 1000 | B (the MIC in the presence of between 8 and 32 μg/mL of a β-lactamase inhibitor) | 100 to 1000 | C (the MIC in the presence of <4 μg/mL of a β-lactamase inhibitor) | 100 to 1000 | B (the MIC in the presence of between 8 and 32 μg/mL of a β-lactamase inhibitor)
5 | O=C(CN1CCC(O)CC1)N[C@H]1Cc2cccc(C(=O)O)c2OB1O [Example 12, 2-Hydroxy-3-[2-(4-hydroxy-piperidin-1-yl)-acetylamino]-3,4-dihydro-2H-benzo[e][1,2]oxaborinine-8-carboxylic acid] | C (the MIC in the presence of <4 μg/mL of a β-lactamase inhibitor) | B (the MIC in the presence of between 8 and 32 μg/mL of a β-lactamase inhibitor) | 100 to 1000 | C (the MIC in the presence of <4 μg/mL of a β-lactamase inhibitor) | < 100 | < 100 | C (the MIC in the presence of <4 μg/mL of a β-lactamase inhibitor) | < 100 | C (the MIC in the presence of <4 μg/mL of a β-lactamase inhibitor) | < 100 | B (the MIC in the presence of between 8 and 32 μg/mL of a β-lactamase inhibitor)
6 | O=C(CN1CCCNCC1)N[C@H]1Cc2cccc(C(=O)O)c2OB1O [Example 13, 3-(2-[1,4]Diazepan-1-yl-acetylamino)-2-hydroxy-3,4-dihydro-2H-benzo[e][1,2]oxaborinine-8-carboxylic acid] | C (the MIC in the presence of <4 μg/mL of a β-lactamase inhibitor) | B (the MIC in the presence of between 8 and 32 μg/mL of a β-lactamase inhibitor) | 10000 to 100000 | C (the MIC in the presence of <4 μg/mL of a β-lactamase inhibitor) | < 100 | 1000 to 10000 | C (the MIC in the presence of <4 μg/mL of a β-lactamase inhibitor) | 100 to 1000 | C (the MIC in the presence of <4 μg/mL of a β-lactamase inhibitor) | 100 to 1000 | B (the MIC in the presence of between 8 and 32 μg/mL of a β-lactamase inhibitor)
7 | N[C@H]1CCCN(CC(=O)N[C@H]2Cc3cccc(C(=O)O)c3OB2O)C1 [Example 11, 3-[2-(S-3-Amino-piperidin-1-yl)-acetylamino]-2-hydroxy-3,4-dihydro-2H-benzo[e][1,2]oxaborinine-8-carboxylic acid] | C (the MIC in the presence of <4 μg/mL of a β-lactamase inhibitor) | A (an MIC of the fixed β-lactam antibiotic in the presence of >32 μg/mL of a β-lactamase inhibitor) | 1000 to 10000 | A (an MIC of the fixed β-lactam antibiotic in the presence of >32 μg/mL of a β-lactamase inhibitor) | < 100 | 100 to 1000 | C (the MIC in the presence of <4 μg/mL of a β-lactamase inhibitor) | 100 to 1000 | C (the MIC in the presence of <4 μg/mL of a β-lactamase inhibitor) | < 100 | A (an MIC of the fixed β-lactam antibiotic in the presence of >32 μg/mL of a β-lactamase inhibitor)
